# Columns and labels:
# Format in all cases: biochemical
# Lipase: Lipex 100L = assay: Remaining lipase activity after storage with subtilisin in the Table 3 detergent (hydrolysis of pNp-valerate); conditions: 2 weeks at 35° C.
# Protocol: (§1) General experimental details: Detergents with a subtilisin (Savinase 16L) and a lipase (Lipex 100L) with or without X—B^1—NH—CHR—CHOH—SO3Na (the peptide aldehyde hydrosulfite adduct can be added separately to the detergent containing the subtilisin) are placed in closed glasses at −18° C.; 35° C. and 40° C. Residual activities of protease and lipase are measured after different times using standard analytical methods (protease by hydrolysis of N,N-dimethylcasein at 40° C., pH 8.3 and lipase by hydrolysis of pNp-valerate at 40° C., pH 7.7). Similar trials can be made with addition of subtilisin to a detergent already containing suitable amounts of the peptide aldehyde hydrosulfite adduct. Similar results can be obtained with all the mentioned peptide aldehyde bisulfite adducts.
# (§2) As an example of a detergent composition with a stabilized subtilisin formulation, the composition described in Table 3 was made.
# (§3) In Table 4 are shown the results measured after two weeks incubation at 35° C. in the detergent described in Table 3.
# Subtilisin: Savinase = target: T1, Subtilisin: Savinase (Lederbergia lenta, UniProt P29600); assay: Remaining subtilisin activity after storage in the Table 3 detergent; conditions: 2 weeks at 35° C.
# T1 construct: purchased Novozymes A/S Savinase 16L
# T1 sequence (P29600 1-269): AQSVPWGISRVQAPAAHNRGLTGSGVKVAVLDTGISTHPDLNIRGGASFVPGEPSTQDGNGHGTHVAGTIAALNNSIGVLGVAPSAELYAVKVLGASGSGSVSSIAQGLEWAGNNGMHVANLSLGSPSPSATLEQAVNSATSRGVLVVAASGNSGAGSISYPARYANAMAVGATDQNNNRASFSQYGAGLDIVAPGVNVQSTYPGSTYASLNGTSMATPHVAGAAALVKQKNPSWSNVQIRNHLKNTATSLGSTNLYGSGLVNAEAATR
# Protocol: as §1, §2, §3
# [1] = target: T2, subtilisin (Savinase 16L) (Lederbergia lenta, UniProt P29600); assay: Remaining protease activity of Savinase 16L after storage in the Table 1 detergent (hydrolysis of N,N-dimethylcasein); conditions: one week at 40° C.
# T2 construct: purchased Novozymes A/S Savinase 16L
# T2 sequence (P29600 1-269): T1 sequence (P29600 1-269)
# Protocol: as §1
# As an example of detergent composition with a stabilized subtilisin formulation, the composition described in Table 1 was made.
# In Table 2 are shown the results obtained with X=Cbz-Gly; B^1=Ala; R═—CH2-p(C6H4)—OH; stability measured after one week incubation at 40° C. in the detergent described in Table 1.
# Subtilisin Coronase 48L = assay: Remaining subtilisin activity after storage in the Table 5 detergent, Coronase 48L; conditions: 59 ppm inhibitor in detergent of Table 5
# Protocol: as §1
# (§4) As yet another example of a detergent with a stabilized subtilisin formulation, the composition described in Table 5 was made.
# (§5) In Table 6 are shown the results measured after 4 weeks incubation at 37° C., and after 8 weeks incubation at 30° C., in the detergent described in Table 5.
# [2] = test system: Subtilisin Liquanase 2.5L; assay: Remaining subtilisin activity after storage in the Table 5 detergent, Liquanase 2.5L; conditions: 34 ppm inhibitor in detergent of Table 5
# Protocol: as §1, §4, §5
# Lipase: Lipoclean 2000L = assay: Remaining lipase activity after storage with subtilisin in the Table 5 detergent
# Protocol: as §1, §4, §5
SMILES,Remaining activity of Lipase (Lipase: Lipex 100L; 128 ppm inhibitor in detergent of Table 3 with Savinase) [%],"remaining activity at 128 ppm (Subtilisin: Savinase; 128 ppm inhibitor in detergent of Table 3, read-out: Remaining activity of Subtilisin (protease)) [%]",Protease stability (remaining activity) ([1]; 7 ppm inhibitor in detergent of Table 1) [%],Protease stability (remaining activity) ([1]; 14 ppm inhibitor in detergent of Table 1) [%],Protease stability (remaining activity) ([1]; 18 ppm inhibitor in detergent of Table 1) [%],Remaining activity of Lipase (Lipase: Lipex 100L; 21 ppm inhibitor in detergent of Table 3 with Savinase) [%],"Remaining activity of Subtilisin, 4 weeks at 37° C. (Subtilisin Coronase 48L) [%]","Remaining activity of Subtilisin, 4 weeks at 37° C. [2] [%]",Remaining activity of Subtilisin (protease) (Subtilisin: Savinase; 21 ppm inhibitor in detergent of Table 3) [%],"Remaining activity of Lipase, 8 weeks at 30° C. (Lipase: Lipoclean 2000L; with Coronase 48L, 59 ppm inhibitor in detergent of Table 5) [%]","Remaining activity of Lipase, 8 weeks at 30° C. (Lipase: Lipoclean 2000L; with Liquanase 2.5L, 34 ppm inhibitor in detergent of Table 5) [%]"
"O=Cc1ccc(B(O)O)cc1 [4-formylphenyl boronic acid, reference compound]",2,8,–,–,–,–,–,–,–,–,–
C[C@H](NC(=O)CNC(=O)OCc1ccccc1)C(=O)N[C@@H](Cc1ccc(O)cc1)C(O)S(=O)(=O)[O-].[Na+] (some centres unmarked) [Cbz-GA-NHCH(CH2C6H4OH)C(OH)(SO3M)-H],–,–,52,77,80,18,80,83,63,61,27

# Reference: US9085750B2, “Stabilized subtilisin composition” (Novozymes A/S, priority 2011, dated 2015)
